Results: paper PMC5640650, “NatD promotes lung cancer progression by preventing histone H4 serine phosphorylation to activate Slug expression” (Nature Communications, 2017)

Key:
CK2α = assay: Slug expression after CK2α RNA interference, H1299 cells; format: cell-based, human; details: Scr and NatD-KD H1299 cells, particularly in NatD-KD cells
Excerpt: Fig. 7 Downregulation of Nt-acetylation of histone H4 facilitates nuclear accumulation of CK2α and its binding to histone H4 in lung cancer cells. a Representative confocal scanning images of CK2α localization in Scr and H1299 cells (left panel). The staining intensity of CK2α was quantified by software ImageJ from NIH (right diagram). Scale bars, 5 μm. […] Equal peptide biotinylated on C terminus is shown by dot blot analysis with streptavidin (middle panel). […] IgG served as a negative control. Results are shown as mean ± s.d. from three independent experiments; two-tailed Student’s t-test, **P < 0.01 compared with the indicated control. g Quantitative real-time PCR analysis of mRNA levels of CK2α and Slug normalized to GAPDH in Scr and NatD-KD H1299 cells in the absence or presence of siRNA to CK2α. NC, siRNA mimics negative control. Data are mean ± s.d. of three independent experiments; Student’s t-test, *P < 0.05, **P < 0.01 compared with the indicated control. h Western blot analysis of indicated proteins from Scr and NatD-KD H1299 cells in the absence or presence of siRNA to CK2α.
siRNA against CK2α and negative control (NC) siRNA were synthesized by RiboBio Co. Ltd (Gaungzhou, China).

H1299 cells = assay: TGF-β1-induced EMT experiment (morphology), H1299 cells; format: cell-based, human; details: Scr H1299 cells, TGF-β1
Excerpt: Fig. 4 Silencing NatD suppresses cancer cell EMT by downregulating Slug. a Representative phase contrast images of Scr and NatD-KD H1299 cells treated with TGF-β1. Data are representative of three independent experiments. Scale bar, 100 μm. b Quantitative real-time PCR analysis of mRNA levels of indicated key EMT-related genes in Scr and NatD-KD H1299 cells normalized to GAPDH in the absence or presence of TGF-β1. Results are shown as mean ± s.d. of three independent experiments. Two-tailed Student’s t-test was used. **P < 0.01 or *P < 0.05 compared with the indicated control. c Western blot analysis of indicated protein levels in Scr and NatD-KD H1299 cells in the absence or presence of TGF-β1. GAPDH served as a loading control. Data are representative of three independent experiments. d Immunofluorescence analysis of Scr and NatD-KD H1299 cells in the absence or presence of TGF-β1 stained for E-cadherin and N-cadherin. […] (bottom panels) Cells were counted in at least four random microscope fields (×100 magnification) for the corresponding assays; migration and invasion are expressed as a percentage of control. […] Two-tailed Student’s t-test was used. **P < 0.01 compared with the indicated control. g Quantitative real-time PCR analysis of the mRNA levels of NatD and indicated key EMT-related genes (normalized to GAPDH) in Scr cells, NatD-KD cells, and NatD-KD + Slug cells. […]

Substance	Slug expression after CK2α knockdown (CK2α)	Slug expression after CK2α knockdown (CK2α; listed as knockdown of CK2α by RNA interference)	morphology on TGF-β1 treatment, Scr cells (H1299 cells)
CK2α siRNA: siRNA against CK2α: 5′-GAAUUAGAUCCACGUUUCA-3′ (chemistry not given here)	greatly activated	significantly increased	–
TGF-β1: TGF-β1 used to induce EMT [reference compound]	–	–	developed a spindle-like appearance and mesenchymal morphology
